{
  "source": "patent US20100190846A1",
  "about": "“MICROBICIDAL AGENT AND MICROBICIDAL COMPOSITION” (priority 2006, published 2010)",
  "assay_in_all_cases": "Agar dilution method microbicidal test; on Growth on agar plate: key: +: grew; −: did not grow",
  "type_in_all_cases": "cell-based",
  "key": {"[1]": {"tested_on": "Bacillus subtilis MB-32", "outline": "(§1)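 MIC read as lowest sample concentration preventing visible growth after 18 hours at 37° C. Plates: BHI agar containing 0.25–4.0 mg/mL final compound from DMSO stocks. Inoculum: MHB suspension at 10^8/mL diluted 100-fold to 10^6/mL.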"}, "[2]": {"tested_on": "Bacillus cereus", "outline": "as §1"}, "[3]": {"tested_on": "Bacillus subtilis ATCC6633", "details": "Bacillus subtilis ATCC 6633", "outline": "as §1"}, "[4]": {"tested_on": "Pseudomonas aeruginosa", "outline": "as §1"}, "[5]": {"tested_on": "Salmonella sp.", "outline": "as §1"}, "[6]": {"tested_on": "Streptococcus pneumoniae", "outline": "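Agar dilution in BHI agar at final 4.0, 3.0, 2.0, 1.0, 0.5 and 0.25 mg/mL (DMSO stocks; catechin in sterile water). Bacteria grown in MHB, diluted to 10^6/mL, spotted onto plates, incubated 18 hours at 37° C. MIC is the lowest concentration inhibiting growth.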"}, "[7]": {"tested_on": "Escherichia coli", "outline": "as §1"}},
  "data": [
    {"substance": "catechin [reference compound]", "values": [
      {"measurement": "Growth on agar plate", "setting": "[1]; 0.25 mg/mL", "value": "+"},
      {"measurement": "Growth on agar plate", "setting": "[1]; 0.5 mg/mL", "value": "+"},
      {"measurement": "Growth on agar plate", "setting": "[1]; 1.0 mg/mL", "value": "+"},
      {"measurement": "Growth on agar plate", "setting": "[1]; 2.0 mg/mL", "value": "−"},
      {"measurement": "Growth on agar plate", "setting": "[1]; 3.0 mg/mL", "value": "−"},
      {"measurement": "Growth on agar plate", "setting": "[1]; 4.0 mg/mL", "value": "−"},
      {"measurement": "MIC", "setting": "[1]; BHI agar, 37° C., 18 hours", "value": 2000, "unit": "µg/mL"},
      {"measurement": "Growth on agar plate", "setting": "[2]; 0.25 mg/mL", "value": "+"},
      {"measurement": "Growth on agar plate", "setting": "[2]; 0.5 mg/mL", "value": "+"},
      {"measurement": "Growth on agar plate", "setting": "[2]; 1.0 mg/mL", "value": "−"},
      {"measurement": "Growth on agar plate", "setting": "[2]; 2.0 mg/mL", "value": "−"},
      {"measurement": "Growth on agar plate", "setting": "[2]; 3.0 mg/mL", "value": "−"},
      {"measurement": "Growth on agar plate", "setting": "[2]; 4.0 mg/mL", "value": "−"},
      {"measurement": "MIC", "setting": "[2]; BHI agar, 37° C., 18 hours", "value": 1000, "unit": "µg/mL"},
      {"measurement": "Growth on agar plate", "setting": "[3]; 0.25 mg/mL", "value": "+"},
      {"measurement": "Growth on agar plate", "setting": "[3]; 0.5 mg/mL", "value": "+"},
      {"measurement": "Growth on agar plate", "setting": "[3]; 1.0 mg/mL", "value": "+"},
      {"measurement": "Growth on agar plate", "setting": "[3]; 2.0 mg/mL", "value": "+"},
      {"measurement": "Growth on agar plate", "setting": "[3]; 3.0 mg/mL", "value": "−"},
      {"measurement": "Growth on agar plate", "setting": "[3]; 4.0 mg/mL", "value": "−"},
      {"measurement": "MIC", "setting": "[3]; BHI agar, 37° C., 18 hours", "value": 3000, "unit": "µg/mL"},
      {"measurement": "Growth on agar plate", "setting": "[4]; 0.25 mg/mL", "value": "+"},
      {"measurement": "Growth on agar plate", "setting": "[4]; 0.5 mg/mL", "value": "+"},
      {"measurement": "Growth on agar plate", "setting": "[4]; 1.0 mg/mL", "value": "−"},
      {"measurement": "Growth on agar plate", "setting": "[4]; 2.0 mg/mL", "value": "−"},
      {"measurement": "Growth on agar plate", "setting": "[4]; 3.0 mg/mL", "value": "−"},
      {"measurement": "Growth on agar plate", "setting": "[4]; 4.0 mg/mL", "value": "−"},
      {"measurement": "MIC", "setting": "[4]; BHI agar, 37° C., 18 hours", "value": 1000, "unit": "µg/mL"},
      {"measurement": "Growth on agar plate", "setting": "[5]; 0.25 mg/mL", "value": "+"},
      {"measurement": "Growth on agar plate", "setting": "[5]; 0.5 mg/mL", "value": "+"},
      {"measurement": "Growth on agar plate", "setting": "[5]; 1.0 mg/mL", "value": "+"},
      {"measurement": "Growth on agar plate", "setting": "[5]; 2.0 mg/mL", "value": "−"},
      {"measurement": "Growth on agar plate", "setting": "[5]; 3.0 mg/mL", "value": "−"},
      {"measurement": "Growth on agar plate", "setting": "[5]; 4.0 mg/mL", "value": "−"},
      {"measurement": "MIC", "setting": "[5]; BHI agar, 37° C., 18 hours", "value": 2000, "unit": "µg/mL"},
      {"measurement": "Growth on agar plate", "setting": "[6]; 0.25 mg/mL", "value": "+"},
      {"measurement": "Growth on agar plate", "setting": "[6]; 0.5 mg/mL", "value": "+"},
      {"measurement": "Growth on agar plate", "setting": "[6]; 1.0 mg/mL", "value": "−"},
      {"measurement": "Growth on agar plate", "setting": "[6]; 2.0 mg/mL", "value": "−"},
      {"measurement": "Growth on agar plate", "setting": "[6]; 3.0 mg/mL", "value": "−"},
      {"measurement": "Growth on agar plate", "setting": "[6]; 4.0 mg/mL", "value": "−"},
      {"measurement": "MIC", "setting": "[6]; BHI agar, 37° C., 18 hours", "value": 1000, "unit": "µg/mL"},
      {"measurement": "Growth on agar plate", "setting": "[7]; 0.25 mg/mL", "value": "+"},
      {"measurement": "Growth on agar plate", "setting": "[7]; 0.5 mg/mL", "value": "+"},
      {"measurement": "Growth on agar plate", "setting": "[7]; 1.0 mg/mL", "value": "+"},
      {"measurement": "Growth on agar plate", "setting": "[7]; 2.0 mg/mL", "value": "+"},
      {"measurement": "Growth on agar plate", "setting": "[7]; 3.0 mg/mL", "value": "+"},
      {"measurement": "Growth on agar plate", "setting": "[7]; 4.0 mg/mL", "value": "+"},
      {"measurement": "MIC", "setting": "[7]; BHI agar, 37° C., 18 hours", "value": 2000, "unit": "µg/mL"}
    ]}
  ]
}
